IC50 data for one molecule are collected here from ChEMBL document CHEMBL1143564, “Structures of three classes of anticancer agents bound to the human topoisomerase I-DNA covalent complex” (J Med Chem, 2005).

The test has as its target T1, DNA topoisomerase 1 (Homo sapiens, UniProt P11387).
T1 sequence (P11387 whole entry): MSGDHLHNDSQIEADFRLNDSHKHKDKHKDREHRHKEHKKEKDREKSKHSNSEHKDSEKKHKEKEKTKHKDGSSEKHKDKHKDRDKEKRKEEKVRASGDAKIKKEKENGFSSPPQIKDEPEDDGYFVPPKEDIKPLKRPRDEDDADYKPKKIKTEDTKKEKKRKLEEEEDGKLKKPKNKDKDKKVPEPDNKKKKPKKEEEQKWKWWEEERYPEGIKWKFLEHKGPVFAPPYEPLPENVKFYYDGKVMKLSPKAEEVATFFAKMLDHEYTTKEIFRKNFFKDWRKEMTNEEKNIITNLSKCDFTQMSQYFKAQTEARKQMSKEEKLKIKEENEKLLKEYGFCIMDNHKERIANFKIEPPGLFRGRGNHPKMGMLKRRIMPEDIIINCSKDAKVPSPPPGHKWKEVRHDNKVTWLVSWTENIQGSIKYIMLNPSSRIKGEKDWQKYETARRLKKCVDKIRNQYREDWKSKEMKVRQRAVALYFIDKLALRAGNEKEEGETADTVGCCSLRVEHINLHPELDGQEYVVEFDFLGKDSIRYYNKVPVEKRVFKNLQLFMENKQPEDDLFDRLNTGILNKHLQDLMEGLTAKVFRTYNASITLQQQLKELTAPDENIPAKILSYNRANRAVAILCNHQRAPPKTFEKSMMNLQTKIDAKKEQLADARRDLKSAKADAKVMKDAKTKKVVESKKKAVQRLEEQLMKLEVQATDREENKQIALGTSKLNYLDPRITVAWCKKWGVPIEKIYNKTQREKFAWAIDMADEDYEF
In words: Inhibition of topoisomerase I-DNA complex in trapping assay.

The IC50 is the concentration needed to halve the response being measured. Lower therefore signals inhibition by little substance. For the molecule `O=C1NC(=O)c2c1c1c3ccc(O)cc3[nH]c1c1c2c2ccc(O)cc2n1C1OC(CO)C(O)C(O)C1O` (stereo unspecified), the IC50 amounted to 0.03 µM.
